Laboratory results reported in the NIST ThermoML archive (doi:10.1021/je900757k).

Experiment: isobaric coefficient of expansion
Settings: Liquid, DSC

CCCCCCCCC [nonane]
isobaric coefficient of expansion
Settings	278.15 K	288.15 K	298.15 K	308.15 K	318.15 K	328.15 K	338.15 K	348.15 K
5000 kPa	0.001 1/K	0.00103 1/K	0.00105 1/K	0.00106 1/K	0.00108 1/K	0.0011 1/K	0.00113 1/K	0.00114 1/K
10000 kPa	0.000977 1/K	0.000997 1/K	0.00101 1/K	0.00103 1/K	0.00104 1/K	0.00106 1/K	0.00108 1/K	0.00109 1/K
15000 kPa	0.000954 1/K	0.000967 1/K	0.000984 1/K	0.000995 1/K	0.00101 1/K	0.00102 1/K	0.00103 1/K	0.00104 1/K
20000 kPa	0.000928 1/K	0.00094 1/K	0.000955 1/K	0.000962 1/K	0.00097 1/K	0.000984 1/K	0.000992 1/K	0.000998 1/K
25000 kPa	0.000907 1/K	0.000917 1/K	0.000927 1/K	0.000935 1/K	0.000941 1/K	0.000949 1/K	0.00096 1/K	0.000964 1/K
30000 kPa	0.000886 1/K	0.000898 1/K	0.000903 1/K	0.000912 1/K	0.000915 1/K	0.000921 1/K	0.000931 1/K	0.000931 1/K
35000 kPa	0.000868 1/K	0.000875 1/K	0.000878 1/K	0.000883 1/K	0.000889 1/K	0.000892 1/K	0.000899 1/K	0.0009 1/K
40000 kPa	0.000841 1/K	0.000853 1/K	0.000856 1/K	0.00086 1/K	0.000864 1/K	0.000865 1/K	0.000866 1/K	0.000869 1/K
45000 kPa	0.000827 1/K	0.000836 1/K	0.000839 1/K	0.000838 1/K	0.000841 1/K	0.000843 1/K	0.000846 1/K	0.000844 1/K
50000 kPa	0.000811 1/K	0.000819 1/K	0.000819 1/K	0.00082 1/K	0.000825 1/K	0.000822 1/K	0.000825 1/K	0.000823 1/K
55000 kPa	0.000803 1/K	0.000799 1/K	0.000803 1/K	0.000804 1/K	0.000806 1/K	0.000803 1/K	0.000807 1/K	0.000806 1/K

CCCCCCCCCCC [undecane]
isobaric coefficient of expansion
Settings	278.15 K	288.15 K	298.15 K	308.15 K	318.15 K	328.15 K	338.15 K	348.15 K
5000 kPa	0.000936 1/K	0.000948 1/K	0.000965 1/K	0.000979 1/K	0.000993 1/K	0.00101 1/K	0.00102 1/K	0.00103 1/K
10000 kPa	0.000913 1/K	0.000924 1/K	0.000937 1/K	0.00095 1/K	0.00096 1/K	0.000971 1/K	0.000983 1/K	0.000991 1/K
15000 kPa	0.000893 1/K	0.0009 1/K	0.000912 1/K	0.000921 1/K	0.000933 1/K	0.00094 1/K	0.000946 1/K	0.000948 1/K
20000 kPa	0.000873 1/K	0.000879 1/K	0.00089 1/K	0.000897 1/K	0.000901 1/K	0.000909 1/K	0.000915 1/K	0.000917 1/K
25000 kPa	0.000854 1/K	0.000856 1/K	0.000865 1/K	0.00087 1/K	0.000874 1/K	0.000884 1/K	0.000888 1/K	0.00089 1/K
30000 kPa	0.000836 1/K	0.000843 1/K	0.000845 1/K	0.000848 1/K	0.000851 1/K	0.000857 1/K	0.00086 1/K	0.000859 1/K
35000 kPa	0.000819 1/K	0.00082 1/K	0.000825 1/K	0.000828 1/K	0.000829 1/K	0.000833 1/K	0.000834 1/K	0.000833 1/K
40000 kPa	0.000797 1/K	0.000801 1/K	0.000805 1/K	0.000806 1/K	0.000808 1/K	0.000806 1/K	0.00081 1/K	0.00081 1/K
45000 kPa	0.000785 1/K	0.000787 1/K	0.00079 1/K	0.000789 1/K	0.000787 1/K	0.00079 1/K	0.000789 1/K	0.000787 1/K
50000 kPa	0.000773 1/K	0.000773 1/K	0.000773 1/K	0.000774 1/K	0.000775 1/K	0.000775 1/K	0.000771 1/K	0.000769 1/K
55000 kPa	0.000765 1/K	0.000756 1/K	0.000759 1/K	0.000759 1/K	0.000758 1/K	0.000759 1/K	0.000754 1/K	0.000752 1/K

CCCCCCCCCCCC [dodecane]
isobaric coefficient of expansion
Settings	278.15 K	288.15 K	298.15 K	308.15 K	318.15 K	328.15 K	338.15 K	348.15 K
5000 kPa	0.000913 1/K	0.000925 1/K	0.00094 1/K	0.000953 1/K	0.000964 1/K	0.000975 1/K	0.000989 1/K	0.000999 1/K
10000 kPa	0.000896 1/K	0.000902 1/K	0.000916 1/K	0.000924 1/K	0.000932 1/K	0.000941 1/K	0.00095 1/K	0.000958 1/K
15000 kPa	0.000874 1/K	0.000881 1/K	0.000893 1/K	0.000899 1/K	0.000908 1/K	0.000913 1/K	0.000918 1/K	0.000921 1/K
20000 kPa	0.000854 1/K	0.00086 1/K	0.000869 1/K	0.000874 1/K	0.000876 1/K	0.000884 1/K	0.000888 1/K	0.000891 1/K
25000 kPa	0.000838 1/K	0.000842 1/K	0.000848 1/K	0.00085 1/K	0.000851 1/K	0.000859 1/K	0.000863 1/K	0.000863 1/K
30000 kPa	0.000821 1/K	0.000826 1/K	0.000827 1/K	0.000831 1/K	0.000831 1/K	0.000835 1/K	0.000838 1/K	0.000837 1/K
35000 kPa	0.000805 1/K	0.000806 1/K	0.000807 1/K	0.00081 1/K	0.000809 1/K	0.000813 1/K	0.000815 1/K	0.000813 1/K
40000 kPa	0.000786 1/K	0.00079 1/K	0.000788 1/K	0.000792 1/K	0.000787 1/K	0.000791 1/K	0.000788 1/K	0.00079 1/K
45000 kPa	0.000772 1/K	0.000778 1/K	0.000775 1/K	0.000773 1/K	0.000768 1/K	0.000774 1/K	0.000773 1/K	0.00077 1/K
50000 kPa	0.00076 1/K	0.000761 1/K	0.00076 1/K	0.000755 1/K	0.000754 1/K	0.000757 1/K	0.000754 1/K	0.000753 1/K
55000 kPa	0.000751 1/K	0.000745 1/K	0.000744 1/K	0.000745 1/K	0.000739 1/K	0.000742 1/K	0.00074 1/K	0.000737 1/K
